{"source": "patent US8642622B2", "about": "“Piperidinyl compound as a modulator of chemokine receptor activity” (Bristol-Myers Squibb Company, priority 2010, dated 2014)", "key": {"[1]": {"assay": "Human liver microsomal metabolism, Assay Conditions A", "format": "in vitro ADME", "conditions": "0.5 μM compound, 10 minutes, 37° C.", "experimental": "Test compound is received as a 3.5 mM stock solution in 100 percent DMSO. Compound is diluted to create a 50 μM acetonitrile (ACN) solution containing 1.4% DMSO, which is then used as a 100× stock for incubation with microsomes. Each compound is tested in duplicate separately in each of three species in the Metabolic Stability-Human, Rat, and Mouse assay suite or as individual species in the Metabolic Stability-Dog or Metabolic Stability-Monkey suites. Compound, NADPH and liver microsome solutions are combined for incubation in three steps:\n152 μL of liver microsome suspension, protein concentration of 1.1 mg/mL in 100 mM NaPi, pH 7.4, 6.6 mM MgCl2 buffer, is pre-warmed at 37° C.\n• 1) 1.7 μL of 50 μM compound (98.6% ACN, 1.4% DMSO) is added to the same tube and pre-incubated at 37° C. for 5 minutes. • 2) The reaction is initiated by the addition of 17 μL of pre-warmed 10 mM NADPH solution in 100 mM NaPi, pH 7.4. • 3) Reaction components are mixed well, and 75 μL are immediately transferred into 150 μl quench/stop solution (zero-time point, To). Reactions are incubated at 37° C. for 10 minutes and then an additional 75 μL aliquot is transferred into 150 μL quench solution. Acetonitrile containing 100 μM DMN (a UV standard for injection quality control), is used as the quench solution to terminate metabolic reactions. • 4) Quenched mixtures are centrifuged at 1500 rpm (˜500×g) in an Allegra X-12 centrifuge, SX4750 rotor (Beckman Coulter Inc., Fullerton, Calif.) for fifteen minutes to pellet denatured microsomes. A volume of 90 μL of supernatant extract, containing the mixture of parent compound and its metabolites, is then transferred to a separate 96-well plate for UV-LC/MS-MS analysis to determine the percent of parent compound that is remaining in the mixture."}, "[2]": {"assay": "Single-dose pharmacokinetics in rats", "format": "in vivo", "conditions": "male, Sprague-Dawley, rat, plasma; for clearance: intravenous; for bioavailability: po, oral solution, read-out: Rat oral bioavailability when dosed as solution", "experimental": "Serial blood samples were collected for all studies from the jugular vein at various time points post dose (0.17 (or 0.25 for oral), 0.5, 0.75, 1, 2, 4, 6, 8 and 24 h, for example). Plasma samples were analyzed by LC-MS/MS.\nAdditional studies evaluating suspensions of crystalline drug substance in aqueous medium were performed as described above."}, "[3]": {"assay": "Human liver microsomal metabolism, Assay Conditions B", "format": "in vitro ADME", "conditions": "3 μM compound, 10 minutes, 37° C.", "experimental": "Test compound is received as 20 mM in DMSO. Compound is diluted to create a 300 μM acetonitrile (ACN) solution containing 1.5% DMSO, which is then used as a 100× stock for incubation with microsomes. Each compound is tested in duplicate separately in each of three species in the Metabolic Stability-Human, Rat, Mouse assay suite or individual species in the Metabolic Stability-Dog or Metabolic Stability-Monkey suites. Compound, NADPH and liver microsome solutions are combined for incubation in three steps: • 1. 450 μL of liver microsome suspension, protein concentration of 1 mg/mL in 100 mM NaPi, pH 7.4, 6.6 mM MgCl2 buffer, are pre-warmed at 37° C. • 2. […] of 300 μM compound (98.5% CAN, 1.5% DMSO) is added to the same tube. • 3. The reaction is initiated by the addition of 50 μL of pre-warmed 5 mM NADPH solution in 100 mM NaPi, pH 7.4.\nReaction components are mixed well and 150 μL removed to quench/stop solution immediately for the zero-minute time point. Reactions are incubated at 37° C. for 10 minutes and then an additional 150 μL removed from incubation. Aliquots removed are combined with 300 μL ACN which contains 100 μM DMN as a UV standard for detection.\nQuenched mixtures are centrifuged at 1500 rpm (˜500×g) in an Allegra X-12 centrifuge, SX4750 rotor (Beckman Coulter Inc., Fullerton, Calif.) for fifteen minutes to pellet denatured microsomes. A volume of 110 μl of supernatant extract, containing the mixture of parent compound and its metabolites, is then transferred to a separate 96-well plate for UV-LC/MS-MS analysis to determine the percent of parent compound that is remaining in the mixture."}, "Human PXR": {"target": "T1, Human PXR (Homo sapiens, UniProt O75469)", "T1 construct": "expressed in transfected cells; host or cells: HepG2", "T1 sequence (O75469 1-434)": "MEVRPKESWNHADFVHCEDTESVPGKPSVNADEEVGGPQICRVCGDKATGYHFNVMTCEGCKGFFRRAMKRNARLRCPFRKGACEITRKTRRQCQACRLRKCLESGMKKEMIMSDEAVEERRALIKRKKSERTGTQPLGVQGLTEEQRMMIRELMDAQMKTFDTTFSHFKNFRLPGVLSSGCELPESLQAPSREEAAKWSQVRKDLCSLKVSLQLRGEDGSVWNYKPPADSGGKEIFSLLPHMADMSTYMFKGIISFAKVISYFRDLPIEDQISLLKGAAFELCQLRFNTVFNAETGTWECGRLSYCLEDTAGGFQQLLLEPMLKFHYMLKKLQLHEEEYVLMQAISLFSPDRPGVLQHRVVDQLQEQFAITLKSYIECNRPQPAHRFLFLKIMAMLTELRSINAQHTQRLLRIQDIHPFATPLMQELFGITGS", "assay": "PXR transactivation assay (HepG2, CYP3A-Luc reporter)", "format": "cell-based", "conditions": "reported as EC60", "excerpt": "The cell culture medium used is DMEM. […] Charcoal/dextran treated fetal bovine serum (FBS) was purchased from Hyclone (Logan, Utah). HepG2 cells were obtained from ATCC (Manassas, Va.). Human PXR-pcDNA3 and luciferase reporter containing CYP3A4 promoter, CYP3A-Luc, were generated at Bristol-Myers Squibb. White tissue culture (TC)-surface 384-well plates were purchased from Perkin Elmer (Boston, Mass.). Luciferase substrate (Steady-Glo) was purchased from Promega (Madison, Wis.). Control compounds rifampicin, mifepristone, and sulfinpyrazone were purchased from Sigma (St. Louis, Mo.).\nCulture of HepG2 cells is performed in T175 flasks using DMEM containing 10% FBS. The transfection mixture contains 1 μg/mL of PXR-pcDNA3 plasmid DNA, 20 μg/ml of Cyp3A-Luc plasmid DNA, 90 μL/mL of Lipofectamine 2000, and serum-free medium. After incubating at room temperature for 20 minutes, the transfection mixture (1 ml per flask) is applied to the cells in fresh medium (20 mL per flask), and flasks incubated at 37° C. (5% CO2) overnight.\nThe flasks are then tapped vigorously to break up cell aggregates. After the addition of 8 mL of DMEM containing 5% charcoal/dextran-treated FBS, the entire mixture is transferred to conical tubes. Cells are then centrifuged at 1000 rpm for 5 minutes. Cell pellets are resuspended to a final count of ˜7×10^6 cells/mL in freezing media (DMEM containing 20% serum and 10% DMSO). The cell suspension is aliquoted into 15-mL polypropylene tubes, 5 mL per tube. Cells are slowly frozen by placing in a Styrofoam-insulated container at −80° C. overnight. Vials are transferred to an Ultracold (−140° C.) freezer after 24 hours for long-term storage.\nVials of cryopreserved cells are thawed rapidly in a warm water bath for five minutes. Cells are pooled and diluted to 50 mL in a 50-mL conical vial. The thawed cells are centrifuged at 1500 rpm for 5 minutes to collect the cells and the supernatant discarded. Cells are then resuspended in fresh Media II (DMEM containing 5% charcoal/dextran-treated FBS, 1% Penicillin/Streptomycin, 100 μM Non-essential Amino Acids, 1 mM Sodium Pyruvate, and 2 mM L-Glutamine), counted using the Guava Cell Counter, and diluted to 1.6×10^5 cells/ml in the same media.\nFifty microliters of cell mixture is added to wells in columns 1-23 of white tissue-culture treated 384-well plates containing 0.25 μL of test compound dissolved in 100% DMSO. Fifty microliters of Media II is added to wells in column 24. The plates are incubated at 37° C. (5% CO2) for 24 hours, then 5 μL of Alamar Blue reagent (Trek Diagnostics, Cat #00-100) is added to each well. Plates are then incubated an additional two hours at 37° C., 5% CO2 and then one hour at room temperature. […] After the fluorescence is measured, 25 μL of luciferase substrate (Steady-Glo, Promega) is added to each well. The plates are incubated for fifteen minutes at room temperature, after which the luminescence is read on a PheraStar (BMG Labtech) plate reader.\nRifampicin (10 μM), a well-known agonist of PXR, is included in each plate as an internal standard and positive control. The data is then expressed as percent control (% CTRL), where the control signal is the signal from the 10 μM rifampicin and the blank signal is that from the DMSO vehicle. % CTRL=((Compound signal−Blank signal)/(Control signal−Blank signal))*100\nThe EC50 is defined as the concentration corresponding to half of the maximal response derived from the fitted 20-point curve as determined using a four-parameter logistic regression model. Additionally, compounds may also be reported as EC20 or EC60."}}}
{"smiles": "CC(C)[C@@H](NC(=O)C1CCCC1)C(=O)N1CC[C@](O)(c2ccc(Cl)cc2)C(C)(C)C1", "note": "[Example 460]", "values": [{"measurement": "Human Liver Microsomal Metabolism % remaining (Assay Conditions A)", "setting": "[1]", "result": 47, "unit": "%"}, {"measurement": "clearance", "setting": "[2]", "result": 0.6, "unit": "L/h/kg"}, {"measurement": "bioavailability", "setting": "[2]", "result": 8, "unit": "%"}, {"measurement": "Human Liver Microsomal Metabolism % remaining (Assay Conditions B)", "setting": "[3]", "result": 16, "unit": "%"}]}
{"smiles": "CC(C)[C@@H](NC(=O)c1cccc(C(=O)O)c1)C(=O)N1CC[C@](O)(c2ccc(Cl)cc2)C(C)(C)C1", "note": "[Example 463]", "values": [{"measurement": "clearance", "setting": "[2]", "result": 4.5, "unit": "L/h/kg"}, {"measurement": "bioavailability", "setting": "[2]", "result": 9, "unit": "%"}]}
{"smiles": "CC(C)CC(=O)N[C@@H](C(=O)N1CC[C@](O)(c2ccc(Cl)cc2)C(C)(C)C1)C(C)C", "note": "[Example 466]", "values": [{"measurement": "Human Liver Microsomal Metabolism % remaining (Assay Conditions A)", "setting": "[1]", "result": 67, "unit": "%"}, {"measurement": "PXR EC60", "setting": "Human PXR", "result": "1.12 (EC60) μM"}, {"measurement": "Human Liver Microsomal Metabolism % remaining (Assay Conditions B)", "setting": "[3]", "result": 33, "unit": "%"}]}
{"smiles": "CC(C)NC(=O)N[C@@H](C(=O)N1CC[C@](O)(c2ccc(Cl)cc2)C(C)(C)C1)C(C)C", "note": "[Example 850]", "values": [{"measurement": "Human Liver Microsomal Metabolism % remaining (Assay Conditions A)", "setting": "[1]", "result": "99% (A)"}, {"measurement": "PXR EC60", "setting": "Human PXR", "result": "10.2 (EC60) μM"}]}
{"smiles": "CC[C@@H](C)NC(=O)N[C@@H](C(=O)N1CC[C@](O)(c2ccc(Cl)cc2)C(C)(C)C1)C(C)C", "note": "[Example 897]", "values": [{"measurement": "Human Liver Microsomal Metabolism % remaining (Assay Conditions A)", "setting": "[1]", "result": "59% (A)"}, {"measurement": "PXR EC60", "setting": "Human PXR", "result": ">50 (EC60) μM"}]}
{"smiles": "CC(C)[C@@H](NC(=O)CC(C)(C)O)C(=O)N1CC[C@](O)(c2ccc(Cl)cc2)C(C)(C)C1", "note": "[Example 1356]", "values": [{"measurement": "Human Liver Microsomal Metabolism % remaining (Assay Conditions A)", "setting": "[1]", "result": "100% (A)/100% (B)"}, {"measurement": "Human Liver Microsomal Metabolism % remaining (Assay Conditions B)", "setting": "[3]", "result": "100% (A)/100% (B)"}]}
